Test results taken from US5792747A, “Highly potent agonists of growth hormone releasing hormone” (The Administrators of the Tulane Educational Fund, priority 1995, dated 1998).
Non-standard residues stand in square brackets, D forms with d. Residues, ends and D or L forms follow the SMILES beside them. No end group written: not given here. *: point of attachment. Desaminotyrosyl = O=C(CCc1ccc(O)cc1)*; Agmatine = N=C(N)NCCCCN*; Nle = CCCC[C@H](N)C(=O)O; Orn = NCCC[C@H](N)C(=O)O; Abu = CC[C@H](N)C(=O)O

Columns and labels:
[1] = system: superfused rat pituitary cell system; experiment: GH release in superfused rat pituitary cell system (in vitro); type: cell-based; settings: 0.1-0.5 nM, 3 min administration, superfused rat pituitary cells
Description: The compounds of the present invention were tested both in vitro and in vivo. The levels of GH released in vivo by the synthetic peptides, following their intravenous (i.v.) or subcutaneous (sc.) injection in rats, are shown in Tables 2 and 3 respectively. The potencies of the peptides, based on 4-point assays, were calculated in all the Examples of this specification, by the factorial analyses of Bliss and Marks with 95% confidence limits.
Growth hormone releasing activity in vitro is assayed by using a superfused rat pituitary cell system as described in S. Vigh and A. V. Schally, Peptides 5, Suppl: 241-347, 1984, which is incorporated by reference herein. Each peptide, hGH-RH (1-29)NH2 (as control) and the synthetic peptide hGH-RH analogs of the present invention, is administered for 3 minutes (1 ml. perfusate) at various concentrations as shown below. Fractions of 1 ml are coIlected and the GH content in each is determined by RIA.

GH-deficient children = settings: subcutaneously twice a day; cited from earlier work

| Compound | Potency relative to hGH-RH(1-29)NH2 = 1 (GH release in vitro) [1] | share of GH-deficient children in whom linear growth was promoted (GH-deficient children) |
| --- | --- | --- |
| CCCC[C@H](NC(=O)[C@@H](NC(=O)[C@H](CC(=O)O)NC(=O)[C@H](CCC(N)=O)NC(=O)[C@H](CC(C)C)NC(=O)[C@H](CC(C)C)NC(=O)[C@H](CCCN)NC(=O)[C@H](CCCNC(=N)N)NC(=O)[C@H](C)NC(=O)[C@H](CO)NC(=O)[C@H](CC(C)C)NC(=O)[C@H](CCC(N)=O)NC(=O)[C@H](CC)NC(=O)[C@H](CC(C)C)NC(=O)[C@@H](NC(=O)[C@H](CCCCN)NC(=O)[C@H](CCCNC(=N)N)NC(=O)[C@H](Cc1ccc(O)cc1)NC(=O)[C@H](CO)NC(=O)[C@H](CC(N)=O)NC(=O)[C@@H](NC(=O)[C@H](Cc1ccccc1)NC(=O)[C@@H](NC(=O)[C@H](C)NC(=O)[C@H](CC(=O)O)NC(=O)[C@H](C)NC(=O)CCc1ccc(O)cc1)[C@@H](C)CC)[C@@H](C)O)C(C)C)[C@@H](C)CC)C(=O)N[C@@H](CO)C(=O)NCCCCNC(=N)N [Example II, (Dat^1,Abu^15,Orn^21,Nle^27,Agm^29)hGH-RH(1-29)] (Desaminotyrosyl-ADAIFTNSYRKVL[Abu]QLSAR[Orn]LLQDI[Nle]S-Agmatine) | 6.4 |  |
| hGH-RH(1-29)NH2 (YADAIFTNSYRKVLGQLSARKLLQDIMSR-NH2; UniProt P01286 32-60, looked up, fragment) |  | approximately 50% |
| CCCC[C@H](NC(=O)[C@@H](NC(=O)[C@H](CC(=O)O)NC(=O)[C@H](CCC(N)=O)NC(=O)[C@H](CC(C)C)NC(=O)[C@H](CC(C)C)NC(=O)[C@H](CCCCN)NC(=O)[C@H](CCCNC(=N)N)NC(=O)[C@H](C)NC(=O)[C@H](CO)NC(=O)[C@H](CC(C)C)NC(=O)[C@H](CCC(N)=O)NC(=O)[C@H](CC)NC(=O)[C@H](CC(C)C)NC(=O)[C@@H](NC(=O)[C@H](CCCN)NC(=O)[C@H](CCCNC(=N)N)NC(=O)[C@H](Cc1ccc(O)cc1)NC(=O)[C@H](CO)NC(=O)[C@H](CC(N)=O)NC(=O)[C@@H](NC(=O)[C@H](Cc1ccccc1)NC(=O)[C@@H](NC(=O)[C@H](C)NC(=O)[C@H](CC(=O)O)NC(=O)[C@H](C)NC(=O)CCc1ccc(O)cc1)[C@@H](C)CC)[C@@H](C)O)C(C)C)[C@@H](C)CC)C(=O)N[C@@H](CO)C(=O)NCCCCNC(=N)N [Example III, (Dat^1,Orn^12,Abu^15,Nle^27,Agm^29)hGH-RH(1-29)] (Desaminotyrosyl-ADAIFTNSYR[Orn]VL[Abu]QLSARKLLQDI[Nle]S-Agmatine) | 3.8 |  |
| CCCC[C@H](NC(=O)[C@@H](NC(=O)[C@H](CC(=O)O)NC(=O)[C@H](CCC(N)=O)NC(=O)[C@H](CC(C)C)NC(=O)[C@H](CC(C)C)NC(=O)[C@H](CCCN)NC(=O)[C@H](CCCNC(=N)N)NC(=O)[C@H](C)NC(=O)[C@H](CO)NC(=O)[C@H](CC(C)C)NC(=O)[C@H](CCC(N)=O)NC(=O)[C@H](CC)NC(=O)[C@H](CC(C)C)NC(=O)[C@@H](NC(=O)[C@H](CCCN)NC(=O)[C@H](CCCNC(=N)N)NC(=O)[C@H](Cc1ccc(O)cc1)NC(=O)[C@H](CO)NC(=O)[C@H](CC(N)=O)NC(=O)[C@@H](NC(=O)[C@H](Cc1ccccc1)NC(=O)[C@@H](NC(=O)[C@H](C)NC(=O)[C@H](CC(=O)O)NC(=O)[C@H](C)NC(=O)CCc1ccc(O)cc1)[C@@H](C)CC)[C@@H](C)O)C(C)C)[C@@H](C)CC)C(=O)N[C@@H](CO)C(=O)NCCCCNC(=N)N [Example I, (Dat^1,Orn ^12,21,Abu^15,Nle^27,Agm^29)hGH-RH(1-29)] (Desaminotyrosyl-ADAIFTNSYR[Orn]VL[Abu]QLSAR[Orn]LLQDI[Nle]S-Agmatine) | 5.9 |  |
